# In publication PMC10570460 (Frontiers in Cell and Developmental Biology, 2023):
# Molecular target: T1, PKA regulatory subunit R1Alpha (R1A) (Rattus norvegicus, UniProt P09456)
# T1 construct: gene Prkar1a; endogenous detergent-insoluble R1A clusters in P30 rat CA1 brain sections
# Assay: saturation equilibrium binding in fixed brain sections, confocal fluorescence microscopy
# T1 sequence (P09456 2-381): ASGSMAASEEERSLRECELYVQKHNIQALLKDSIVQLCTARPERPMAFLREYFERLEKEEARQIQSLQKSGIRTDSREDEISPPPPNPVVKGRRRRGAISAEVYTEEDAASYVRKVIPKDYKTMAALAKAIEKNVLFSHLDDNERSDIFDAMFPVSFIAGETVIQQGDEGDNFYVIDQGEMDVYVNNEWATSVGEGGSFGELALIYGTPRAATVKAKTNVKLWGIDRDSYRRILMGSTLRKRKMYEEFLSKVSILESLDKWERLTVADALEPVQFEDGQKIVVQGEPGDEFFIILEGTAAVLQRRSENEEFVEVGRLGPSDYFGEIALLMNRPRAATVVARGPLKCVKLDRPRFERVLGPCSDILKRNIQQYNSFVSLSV
smiles,measurement,value
"Nc1ncnc2c1nc(SCC(=O)Nc1ccc3c(c1)C(=O)OC31c3ccc(O)cc3Oc3cc(O)ccc31)n2[C@@H]1O[C@@H]2COP(=O)(O)O[C@H]2[C@H]1O [SAF-cAMP, 8-(5-thioacetamidofluorescein)-adenosine 3′,5′-cyclic monophosphate]",Kd,23.5 nM
